For series [1], the target named is T1, human Sigma-2 receptor (Sig-2R) (Homo sapiens, UniProt Q5BJF2).
T1 construct: expressed in transfected cells; host or cells: HEK-293 Sig-1R knockout (membranes)
Description: Human Sig-2R radioligand assay. It counts as binding. The settings on record: [3H]-DTG, transfected HEK-293 Sig-1R knockout membranes. The method, then: The binding properties of the compounds to the human Sig-2R were similarly studied in transfected HEK-293 Sig-1R knockout membranes using [^3H]-1,3-di-o-tolylguanidine (DTG) (NET-986, PerkinElmer; Boston, USA) as the radioligand. The assay was carried out with 15 μg of membrane suspension, [^3H]-1,3-di-o-tolylguanidine (DTG) (10 nM, 100 μL), in either the absence or presence of either buffer or 10 μM haloperidol for total (TB) and nonspecific (NSB) binding, respectively, or the corresponding compound concentration. Binding buffer contained Tris-HCl (50 mM, pH 7.4). Plates were incubated at 25 °C for 120 min. After incubation, the reaction mix was transferred to MultiScreen HTS, FC plates (Merck Millipore) presoaked in 0.5% polyethyleneimine, and filtered. Following that, plates were washed with ice-cold Tris-HCl (10 mM, pH 8). Filters were dried and counted, and data were processed as above.

In another series the test system is Sig-1R/BiP interaction. Description: BiP/Sig-1R association assay in CHO cells. The series is classed as cell-based. Conditions: for Effect on association between Sig-1R and BiP, compound alone: 30 µM; for Effect on Sig-1R/BiP interaction (concentration-response): CHO cells, 37 °C 30 min, co-IP/ELISA; for Functional profile for Sig-1R: based on BiP/Sig-1R association assay. Here is the method: The interaction between Sig-1R and the chaperone BiP was used to identify the functional nature (agonistic or antagonistic) of compounds [38]. The assay was conducted by Amylgen according to their standard assay protocol (https://www.amylgen.fr/ (accessed on 15 May 2022)). Each assay condition consisted of six determinations. In brief, CHO cells were treated with compounds at 37 °C for 30 min and lysed. CHO cell lysates were immunoprecipitated with Sig-1R antibody, and coimmunoprecipitated BiP was detected by ELISA assay. In each experiment, untreated control cell lysates were used to assess the maximal level of Sig1R-BiP interaction and represented 100% of Sig1R-BiP association. Cells treated with compounds at the corresponding concentrations were equally processed, and the level of Sig1R-BiP association in those conditions was referred to as the control condition. In this experimental setting, Sig1R agonists were able to reduce the Sig1R-BiP interaction, while antagonists were not.
For orientation: An ELISA detects its analyte on a solid surface through an enzyme-linked reagent.

Series [2] is described as follows: Plasma levels, spinal nerve injury (rhizotomy) model. It counts as in vivo, female mouse. The settings on record: ip. The method, then:
(§1) The compounds were dissolved in 0.5% hydroxypropyl-methylcellulose (HPMC; H7509, Sigma-Aldrich) in distilled water and were administered by intraperitoneal (i.p.) route twice daily (bid) in a volume of 10 mL/kg. Administrations were given from 30 min after rhizotomy surgery until 42 days post-injury (dpi), the end of the study; in the SOD1^G93A study, treatments were given from 8 to 16 weeks of age (see Figure 6).
Plasma levels were determined in the two in vivo models evaluated to be able to associate the pharmacological activity with the levels present in plasma. […] In the SOD1^G93A model, the plasma levels were evaluated at 16 weeks of age (after 8 weeks of administration) and 15 min after compound administration (5 mg/kg i.p.). Plasma samples were assayed by ultraperformance liquid chromatography−triple quadrupole mass spectrometry (UPLC-MS/MS) after plasma protein precipitation. Results are expressed as mean ± standard deviation (n = 8).

Series [3] in a line: Plasma levels, SOD1G93A model. The series is classed as in vivo, Transgenic SOD1^G93A male mouse. Conditions: SOD1G93A transgenic, ip. Here is the method: as §1
Plasma levels were determined in the two in vivo models evaluated to be able to associate the pharmacological activity with the levels present in plasma. In the rhizotomy model, the plasma levels were evaluated at Day 42 after surgery and at 15 min after compound administration (0.5 and 5 mg/kg i.p.). […] Plasma samples were assayed by ultraperformance liquid chromatography−triple quadrupole mass spectrometry (UPLC-MS/MS) after plasma protein precipitation. Results are expressed as mean ± standard deviation (n = 8).

The subject of series [4] is spinal MNs after L4-L5 rhizotomy. Description: MN survival after L4-L5 rhizotomy (cresyl violet MN counts). It counts as in vivo, female mice (B6SJL). Here is the method:
Surgeries were performed on three-month-old mice under anesthesia with ketamine-xylazine (100–10 mg/kg i.p.) as previously described. Briefly, the L4-L5 spinal roots were exposed by a small laminectomy on the right side. Afterwards, roots were cut at the exit from the intervertebral foramina, and the root stumps were separated. Mice were cared for until recovery in a warm environment. Analgesia was provided with buprenorphine (0.1 mg/kg) for the next 48 h post-surgery.
as §1
(§2) At the end of follow-up (42 dpi for rhizotomy and 16 weeks of age for ALS mice; Figure 6), the animals were deeply anesthetized and transcardially perfused with 4% PFA in PBS. The lumbar spinal cord and the TA muscle were harvested and cryopreserved in 30% sucrose solution in PB. The spinal cords were serially cut in 20 µm thick transverse sections with a cryostat (Leica, Mannheim, Germany). For MN counting, L4-L5 spinal cord sections separated 100 µm were stained for 3 h with an acidified solution of 3.1 mM cresyl violet. MNs were identified by their localization in the lateral ventral horn of the spinal cord and were counted following strict size and morphological criteria: only MNs with a diameter larger than 20 µm, polygonal shape, and prominent nucleoli were counted.

Series [5] in a line: Tolerability of chronic administration in rhizotomy mice. The series is classed as in vivo. Conditions: twice daily i.p. for 6 weeks, 0.5 and 5 mg/kg. Here is the method: as §1
The subject of a further series is SOD1^G93A mice. In words: Motor nerve conduction tests in SOD1G93A mice. The series is classed as in vivo, SOD1^G93A male mice. The method, then: as §1
Motor nerve conduction tests were performed before the surgery to obtain baseline values and at the end of the follow-up in the rhizotomy model, whereas the SOD1^G93A mice were evaluated at 8 weeks (prior to starting drug administration) and then every 2–3 weeks until the end point at 16 weeks of age (Figure 6). The sciatic nerve was stimulated by means of single pulses of 50 µs duration delivered from a Grass S88 stimulator through needle electrodes placed at the sciatic notch. The CMAP was recorded from TA, GM, and plantar interossei muscles with microneedle electrodes, with the active electrode being placed in the muscle and the reference at the fourth toe. […] The mice were anesthetized with pentobarbital (50 mg/kg i.p.), and their body temperature was maintained by means of a thermostatic warming pad.

Series [6] has as its system spinal α-MNs in SOD1^G93A mice. Description: Spinal MN counts in SOD1G93A mice. The series is classed as in vivo, SOD1^G93A male mice. Conditions: 5 mg/kg i.p.; 16 weeks of age; untreated 6.9 ± 0.5, WT 25.3 ± 0.5. Here is the method:
as §1, §2

The mark [7] stands for this setting: 0.5 mg/kg bid i.p., 42 dpi, not significant.
Where [8] appears, read: 5 mg/kg/bid i.p. 6 weeks, 42 days after injury, untreated injured 6.8 ± 0.3.
Setting [9] is: 5 mg/kg i.p. from 8 weeks of age, early (11 weeks) and mid (13 weeks) stages.

Broadly, the IC50 is the concentration needed to halve the response being measured. High values mean weaker potency in that assay, low ones greater potency in that assay.

T1 sequence (Q5BJF2 whole entry): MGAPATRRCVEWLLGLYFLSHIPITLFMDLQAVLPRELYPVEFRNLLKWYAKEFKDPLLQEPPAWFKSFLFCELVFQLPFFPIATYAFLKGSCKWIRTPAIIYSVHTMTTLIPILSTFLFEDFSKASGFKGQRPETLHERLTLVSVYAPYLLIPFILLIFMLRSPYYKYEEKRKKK

`C[C@@H]1OC2(CCN(Cc3ccc(F)cc3)CC2)CN(C)C1=O` [EST79232]: the IC50 in series [1] is > 10 µM. For the same compound, in the series with Sig-1R/BiP interaction, the “Effect on association between Sig-1R and BiP, compound alone” value was “able to reduce the association between Sig-1R and BiP”. Moreover, in the series with Sig-1R/BiP interaction, the “Effect on Sig-1R/BiP interaction (concentration-response)” value was “concentration-dependent dissociation of Sig-1R from BiP”. In addition, the “Functional profile for Sig-1R” value in the series on Sig-1R/BiP interaction is given as “agonist”. The concentration at 15 min in series [2] (plasma, rhizotomy female mouse, 0.5 mg/kg i.p. bid, day 42, read-out: Plasma Concentration 15 min Post-Administration, Mean) came to 20 ng/mL; in series [2] (plasma, rhizotomy female mouse, 5 mg/kg i.p. bid, day 42, read-out: Plasma Concentration 15 min Post-Administration, Mean) it was 265 ng/mL; in series [3] (plasma, SOD1G93A male mouse, 5 mg/kg i.p., after 8 weeks of administration, read-out: Plasma Concentration 15 min Post-Administration, Mean), 425 ng/mL. In addition, the “Number of spinal MNs ± SEM, ipsilateral ventral horn” value is 7.6 ± 0.9 in series [4] (setting [7]) and 8.6 ± 0.6 in series [4] (setting [8]). The “Toxicity of chronic administration (behavior, body weight)” value in series [5] is reported as “did not cause overt toxicity in the animals”. Besides, the “CMAP amplitude of TA and plantar muscles vs vehicle” value was “significantly prevented the decline in amplitude of the CMAP of TA and plantar muscles” with SOD1^G93A mice (setting [9]); “effect was reduced to levels found in the vehicle group” in the series with SOD1^G93A mice (5 mg/kg i.p., at 16 weeks of age). The “Number of surviving spinal α-MNs” value in series [6] worked out at 10.8 ± 1.1 MNs per section.

For `CCN1CC2(CCN(Cc3ccc(C#N)c(F)c3)CC2)O[C@@H](C)C1=O` [EST79376], the 50% inhibitory concentration (IC50) in series [1] was > 10 µM. In addition, in the series with Sig-1R/BiP interaction, the “Effect on association between Sig-1R and BiP, compound alone” value is recorded as “had no effect on its own”. Also, the “Effect on Sig-1R/BiP interaction (concentration-response)” value in the series on Sig-1R/BiP interaction is “did not produce any change in the interaction between the two proteins”. The “Functional profile for Sig-1R” value with Sig-1R/BiP interaction is listed as “antagonist”. Besides, the “Reversion of the effect of PRE-084 on Sig-1R/BiP association” value in the series with Sig-1R/BiP interaction (compound 30 µM, PRE-084 10 µM) is recorded as “able to revert the effect of PRE-084”. Further, the concentration at 15 min amounted to 21 ng/mL in series [2] (female, mouse, in vivo, 0.5 mg/kg); 592 ng/mL in series [2] (female, mouse, in vivo, 5 mg/kg); 692 ng/mL in series [3] (male, mouse, in vivo, 5 mg/kg). Also, the “Number of spinal MNs ± SEM, ipsilateral ventral horn” value in series [4] (setting [7]) amounted to 7.4 ± 0.7; in series [4] (setting [8]), 8.7 ± 0.5. Moreover, the “Toxicity of chronic administration (behavior, body weight)” value in series [5] is recorded as “did not cause overt toxicity in the animals”. The “CMAP amplitude of TA and plantar muscles vs vehicle” value in the series on SOD1^G93A mice (setting [9]) is “only showed significant preservation of the CMAP amplitude in the plantar muscle at 13 weeks of age”. Also, the “Number of surviving spinal α-MNs” value in series [6] amounted to 8.5 ± 1.0 MNs per section.

The record behind these values is publication PMC9223397 (International Journal of Molecular Sciences, 2022).
